PMC3491841 (EMBO Molecular Medicine, 2012)

What was measured:
Assay type in all cases: binding
[1] = biological target: T1, LdTOP1S (small subunit of L. donovani topoisomerase IB) (Leishmania donovani, UniProt Q8WQM6); experiment: intrinsic tryptophan fluorescence quenching
T1 sequence (Q8WQM6 1-262): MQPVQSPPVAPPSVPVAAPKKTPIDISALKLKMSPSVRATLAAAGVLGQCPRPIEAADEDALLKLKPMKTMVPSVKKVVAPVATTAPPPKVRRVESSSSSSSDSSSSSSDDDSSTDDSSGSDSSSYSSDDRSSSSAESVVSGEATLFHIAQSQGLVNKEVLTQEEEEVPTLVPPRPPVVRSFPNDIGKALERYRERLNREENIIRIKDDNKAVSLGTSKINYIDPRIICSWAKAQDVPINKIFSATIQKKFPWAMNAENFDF

[2] = biological target: T2, LdTOP1L (large subunit of L. donovani topoisomerase IB) (Leishmania donovani, UniProt A0A3Q8IHS4); experiment: intrinsic tryptophan fluorescence quenching
T2 sequence (A0A3Q8IHS4 1-635): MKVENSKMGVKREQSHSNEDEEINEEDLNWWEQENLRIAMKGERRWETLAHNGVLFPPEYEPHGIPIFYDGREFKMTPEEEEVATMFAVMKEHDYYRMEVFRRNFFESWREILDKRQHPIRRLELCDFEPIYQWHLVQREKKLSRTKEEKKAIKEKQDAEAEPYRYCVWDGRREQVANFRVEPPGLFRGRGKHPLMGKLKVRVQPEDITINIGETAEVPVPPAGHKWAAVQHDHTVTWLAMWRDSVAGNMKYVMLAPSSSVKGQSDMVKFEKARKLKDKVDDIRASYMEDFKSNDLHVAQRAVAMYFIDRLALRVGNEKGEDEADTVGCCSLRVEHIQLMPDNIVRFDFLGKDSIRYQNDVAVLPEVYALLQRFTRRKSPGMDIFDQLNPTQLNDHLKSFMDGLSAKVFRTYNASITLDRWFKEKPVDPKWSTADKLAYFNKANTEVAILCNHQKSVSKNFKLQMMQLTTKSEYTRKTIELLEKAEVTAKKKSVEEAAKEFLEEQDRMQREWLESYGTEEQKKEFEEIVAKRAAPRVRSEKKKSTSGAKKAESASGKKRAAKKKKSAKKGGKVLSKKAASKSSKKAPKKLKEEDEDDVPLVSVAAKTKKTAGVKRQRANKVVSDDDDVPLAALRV

[3] = biological target: T3, LdTOP1LS (reconstituted heterodimeric topoisomerase IB) (Leishmania donovani, UniProt A0A3Q8IHS4+Q8WQM6); experiment: tryptophan fluorescence quenching
T3 sequence (A0A3Q8IHS4 1-635): T2 sequence (A0A3Q8IHS4 1-635)
T3 sequence (Q8WQM6 1-262): T1 sequence (Q8WQM6 1-262)

**Q.** With `COC[C@@H](Cc1ccc(OC)c(OC)c1)[C@@H](COC)Cc1cc(OC)c2c(c1)OCO2` [niranthin] as the compound, how does the Kd [1] read?
**A.** The Kd was 169 ± 120 nM.

**Q.** And the Kd [2]?
**A.** The Kd was 372 ± 260 nM.

**Q.** And the Kd [3]?
**A.** The Kd was 299 ± 160 nM.
